Each structure is given as a SMILES string. Marks after values point to notes of the source that are not given here.

The results in this text go back to patent US20190223437A1, “ACTIVE COMPOUND COMBINATIONS COMPRISING A 5-SUBSTITUTED IMIDAZOLE DERIVATIVE” (BAYER CROPSCIENCE AKTIENGESELLSCHAFT, priority 2016, published 2019).

One series in a line: Measurement of Log P values by HPLC on reversed phase columns (EEC directive 79/831 Annex V.A8).
Details: not given
Format: physicochemical.
Regarding `CC(C)C(O)(Cc1cccc(F)c1F)Cn1cncc1C#N` (stereo not drawn) [Example I-149], the LogP was 2.47^[a].

Consider `N#Cc1cncn1CC(O)(Cc1ccc(F)cc1)C1(F)CC1` (racemic) [Example I-100], for which the LogP was 2.35^[a]. Same read-out and setting: for `COc1cncn1CC(O)(Cc1ccccc1F)C1(Cl)CC1` (racemic) [Example I-35] the value was 1.67^[a]; for `N#Cc1cncn1CC(O)(Cc1ccc(F)cc1)C1CCCC1` (stereo not drawn) [Example I-161], 2.82^[a]; for `OC(Cc1ccccc1Cl)(Cn1cncc1I)C1(Cl)CC1` (stereo not drawn) [Example I-14], 2.14^[a]. As to `OC(Cc1cc(F)ncc1Cl)(Cn1cncc1Cl)C1(Cl)CC1` (stereo not drawn) [Example I-18], the LogP is 2.01^[a]. Still for that read-out and setting: for `Cc1ccc(CC(O)(Cn2cncc2Cl)C2(Cl)CC2)c(F)c1` (stereo not drawn) [Example I-108] the value was 2.34^[a]; for `N#Cc1cncn1CC(O)(Cc1ccnc(Cl)c1)C1(Cl)CC1` (racemic) [Example I-62], 2.04^[a]; for `CC(C)(C)C(O)(Cc1ccccc1F)Cn1cncc1C#N` (stereo not drawn) [Example I-138], 2.73^[a].

Regarding `Cc1cncn1CC(O)(Cc1ccccc1Cl)C1(Cl)CC1` (stereo not drawn) [Example I-03], the LogP was 1.72^[a]. `Cc1ccccc1CC(O)(Cn1cncc1Cl)C1(Cl)CC1` (racemic) [Example I-71]: the LogP is 2.33^[a].

Turning to `OC(Cc1ccc(F)cc1Cl)(Cn1cncc1Cl)C1(Cl)CC1` (stereo not drawn) [Example I-08], the LogP was 2.47^[a]. The same measure, in the same setting: in the case of `N#Cc1cncn1CC(O)(Cc1ccc(Br)cc1Cl)C1(Cl)CC1` (racemic) [Example I-41] it was 3.52^[a]; in that of `NC(=O)c1cncn1CC(O)(Cc1ccc(Cl)cc1F)C1CC1` (stereo not drawn) [Example I-116], 1.49^[a]. As to `N#Cc1cncn1CC(O)(Cc1ccc(Oc2ccc(Cl)cc2)cc1Cl)C1(Cl)CC1` (racemic) [Example I-53], the LogP was 4.54^[a].

Regarding `OC(Cc1ccccc1C(F)(F)F)(Cn1cncc1Cl)C1(Cl)CC1` (racemic) [Example I-89], the LogP is 2.62^[a]. Still for that read-out and setting: for `N#Cc1cncn1CC(O)(Cc1cc(F)cc(F)c1)C1(Cl)CC1` (stereo not drawn) [Example I-156] the value was 2.86^[a]; for `Cc1cc(F)ccc1CC(O)(Cn1cncc1Cl)C1(Cl)CC1` (stereo not drawn) [Example I-155], 2.46^[a]. On the same count and under the same terms, for `OC(Cc1ccc(Cl)cc1F)(Cn1cncc1Br)C1(Cl)CC1` (stereo not drawn) [Example I-30] the value was 2.55^[a]; for `OC(Cc1ccccc1F)(Cn1cncc1Br)C1(Cl)CC1` (racemic) [Example I-33], 2.10^[a].

Regarding `Cc1cncn1CC(O)(Cc1cccnc1Cl)C1(Cl)CC1` (stereo not drawn) [Example I-10], the LogP is 1.22^[a].

As to `C=CCOC(Cc1ccc(Cl)cc1F)(Cn1cncc1Cl)C1(Cl)CC1` (stereo not drawn) [Example I-123], the LogP is 3.31^[a].

For the molecule `CC1(C(O)(Cc2ccccc2Cl)Cn2cncc2C#N)CC1` (racemic) [Example I-79], the LogP was 2.87^[a]. Same read-out and setting: for `N#Cc1cncn1CC(O)(Cc1ccnc(Cl)c1F)C1(Cl)CC1` (stereo not drawn) [Example I-152] the value was 2.25^[a]. Still for that read-out and setting: for `N#Cc1cncn1CC(O)(Cc1ccc(F)cc1)C1(Cl)CCC1` (stereo not drawn) [Example I-159] the value was 2.98^[a]. On to `N#Cc1cncn1CC(O)(Cc1ccc(F)c(F)c1)C1(Cl)CC1` (stereo not drawn) [Example I-109], for which the LogP was 2.78^[a]. On to `OC(Cc1ccnc(Cl)c1)(Cn1cncc1Cl)C1(Cl)CC1` (racemic) [Example I-75], for which the LogP was 1.62^[a]. As for `COc1ccccc1CC(O)(Cn1cncc1C#N)C1(Cl)CC1` (racemic) [Example I-55], the LogP was 2.93^[a].

As to `OC(Cc1cc(Cl)ncc1Cl)(Cn1cncc1Cl)C1(Cl)CC1` (stereo not drawn) [Example I-17], the LogP was 2.18^[a]. Still for that read-out and setting: in the case of `N#Cc1cncn1CC(O)(Cc1cc(Cl)cc(Cl)c1)C1(Cl)CC1` (racemic) [Example I-58] it was 3.55^[a]; in that of `Cc1cccc(CC(O)(Cn2cncc2Cl)C2(Cl)CC2)c1F` (stereo not drawn) [Example I-143], 2.35^[a]; in that of `O=C(Cc1ccccc1)c1cncn1CC(O)(Cc1ccccc1)C1(Cl)CC1` (stereo not drawn) [Example I-169], 3.56^[a]. On the same count and under the same terms, for `CC(C)C(O)(Cc1ccccc1F)Cn1cncc1C#N` (stereo not drawn) [Example I-139] the value was 2.40^[a]. On the same count and under the same terms, in the case of `OC(Cc1cccnc1Cl)(Cn1cncc1Br)C1(Cl)CC1` (stereo not drawn) [Example I-25] it was 1.56^[a]. Regarding `Cc1ccc(CC(O)(Cn2cncc2Cl)C2(Cl)CC2)c(C)c1` (racemic) [Example I-68], the LogP was 2.69^[a]. On the same count and under the same terms, in the case of `OC(Cc1cccc(Cl)c1Cl)(Cn1cncc1Cl)C1(Cl)CC1` (racemic) [Example I-66] it was 2.69^[a]; in that of `N#Cc1cncn1CC(O)(Cc1ccncc1Br)C1(Cl)CC1` (racemic) [Example I-46], 1.94^[a]. As for `OC(Cc1ccccc1Cl)(Cn1cncc1C(F)(F)F)C1(Cl)CC1` (stereo not drawn) [Example I-15], the LogP is 3.63^[a]. Same read-out and setting: for `OC(Cn1cncc1Cl)(C(F)c1ccccc1F)C1(Cl)CC1` (stereo not drawn) [Example I-28] the value was 2.01^[a]; for `OC(Cc1ccccc1F)(Cn1cncc1Cl)C1(Cl)CC1` (stereo not drawn) [Example I-32], 2.07^[a]. Turning to `N#Cc1cncn1CC(O)(Cc1ccc(Cl)cc1)C1(Cl)CC1` (racemic) [Example I-64], the LogP was 3.10^[a]. `OC(Cc1ccc(F)cc1)(Cn1cncc1Cl)C1(Cl)CC1` (stereo not drawn) [Example I-158]: the LogP is 2.13^[a]. For the molecule `N#Cc1cncn1CC(O)(C(F)c1ccccc1Cl)C1(Cl)CC1` (stereo not drawn) [Example I-24], the LogP was 2.82^[a]. On the same count and under the same terms, for `C#Cc1cncn1CC(O)(Cc1ccccc1F)C1(Cl)CC1` (racemic) [Example I-36] the value was 1.89^[a]; for `N#Cc1cncn1CC(O)(Cc1cccnc1Cl)C1(Cl)CC1` (stereo not drawn) [Example I-26], 2.01^[a]; for `OC(Cc1ccnc(Cl)c1Cl)(Cn1cncc1Cl)C1(Cl)CC1` (racemic) [Example I-67], 2.08^[a]. `OC(Cc1ccccc1Cl)(Cn1cncc1F)C1(Cl)CC1` (stereo not drawn) [Example I-16]: the LogP was 1.94^[a]. The same measure, in the same setting: for `N#Cc1cncn1CC(O)(Cc1ccccc1Cl)CC1CC1` (racemic) [Example I-84] the value was 2.84^[a]; for `C#Cc1cncn1CC(O)(Cc1ccccc1Cl)C1(Cl)CC1` (racemic) [Example I-38], 2.09^[a]; for `N#Cc1cncn1CC(O)(Cc1ccccc1Cl)C1(F)CC1` (racemic) [Example I-98], 2.53^[a].

Turning to `N#Cc1cncn1CC(O)(Cc1ccncc1F)C1(Cl)CC1` (stereo not drawn) [Example I-163], the LogP was 1.62^[a]. Same read-out and setting: in the case of `O=C(Cc1ccccc1F)c1cncn1CC(O)(Cc1ccccc1F)C1(Cl)CC1` (stereo not drawn) [Example I-134] it was 3.60^[a]. For the molecule `N#CCc1cncn1CC(O)(Cc1ccccc1Cl)C1(Cl)CC1` (stereo not drawn) [Example I-21], the LogP was 1.66^[a]. Same read-out and setting: for `OC(Cc1ccc(F)c(F)c1)(Cn1cncc1Cl)C1(Cl)CC1` (stereo not drawn) [Example I-110] the value was 2.23^[a]; for `N#Cc1cncn1CC(O)(Cc1ccc(Cl)cc1F)C1CCC1` (stereo not drawn) [Example I-117], 3.13^[a].

The same series, now with this note: method [a]: LC-UV, acidic range, 0.1% formic acid in water and acetonitrile as eluent; Table 1, compounds of formula (I).
Regarding `OC(Cc1ccccc1Cl)(Cn1cncc1Cl)C1(Cl)CC1` (stereo not drawn) [Example I-02], the LogP came out at 2.32.

Staying with this series, now noted: method [c]: LC-UV, acidic range, 0.1% phosphoric acid and acetonitrile as eluent; Table 1.
With `OC(Cc1ccccc1Cl)(Cn1cncc1Cl)C1(Cl)CC1` (stereo not drawn) [Example I-02], the LogP turned out to be 2.00.
